Assay results: patent US5057493A, “Novel antibiotics R106” (priority 1988, dated 1991)
Starred links: 1 amine or outer side, 2 acyl side, 3 side chain; linkers in the order of their positions; H or OH if unused. Non-standard residues stand in square brackets, D forms with d. Residues, ends and D or L forms follow the SMILES beside them. ξ: configuration not given here. ξNMeVal(3-OH) = CNC(C(=O)O)C(C)(C)O; NMeF = CN[CH](Cc1ccccc1)C(=O)O; X1 = CCC(C)C(O[*:1])C(=O)[*:2]; NMeV = CN[CH](C(=O)O)C(C)C

Legend:
[1] = tested on: Aspergillus clavatus TIMM 0056; test: MIC by agar dilution method, casitone agar; type: cell-based; conditions: 27° C. for 7 days
[2] = tested on: Aspergillus nidulans TIMM 0112; test: MIC by agar dilution method, casitone agar; type: cell-based; conditions: 27° C. for 7 days
[3] = tested on: Aspergillus terreus TIMM 0120; test: MIC by agar dilution method, casitone agar; type: cell-based; conditions: 27° C. for 7 days
[4] = tested on: Aspergillus citrinum TIMM 1330; test: MIC by agar dilution method, casitone agar; type: cell-based; conditions: 27° C. for 7 days
[5] = tested on: Trichophyton rubrum TIMM 1216; test: MIC by agar dilution method, casitone agar; type: cell-based; conditions: 27° C. for 7 days
[6] = tested on: Epidermophyton floccosum TIMM 0431; test: MIC by agar dilution method, casitone agar; type: cell-based; conditions: 27° C. for 7 days
[7] = tested on: Cladosporium bantianum TIMM 0343; test: MIC by agar dilution method, casitone agar; type: cell-based; conditions: 27° C. for 7 days
[8] = tested on: Histoplasma capsulatum TIMM 0713; type: cell-based; conditions: 27° C. for 7 days
[9] = tested on: Paracoccidioides brasiliensis TIMM 0878; test: MIC by agar dilution method, casitone agar; type: cell-based; conditions: 27° C. for 7 days
Description: (§1) The antibiotics R106 of the present invention are active against various fungi including pathogenic fungi. The minimum inhibitory concentration (MIC) of each antibiotic against various fungi was determined by the agar dilution method using casitone agar medium (2.0% glucose, 0.9% bacto-casitone, 1.0% yeast extract, 0.1% KH2 PO4, 0.1% Na2 HPO4, 1.0% sodium citrate, 2.0% agar: concentrations are all by w/v).
(§2) After culturing at 27° C. for 7 days, each minimum inhibitory concentration was determined.

[10] = tested on: Paracoccidioides brasiliensis TIMM 0880; test: MIC by agar dilution method, casitone agar; type: cell-based; conditions: 27° C. for 7 days
Description: as §1, §2

[11] = tested on: Blastomyces dermatitidis TIMM 1690; test: MIC by agar dilution method, casitone agar; type: cell-based; conditions: 27° C. for 7 days
[12] = tested on: Candida albicans TIMM 1768; test: Systemic candidiasis model of mice; type: in vivo, ICR strain mice; conditions: for Mean Survival Day: 3 hours after infection, then once a day for 4 days, 30 days; for Number of Animal Survived/Number of Animal Tested: 30 days after infection; for T/C: mean survival day treated vs control
Description: Candida albicans TIMM 1768 was cultured in Sabouraud-dextrose broth at 37° C. overnight, and the cells were collected and suspended in physiological saline. A cell suspension containing 1×10^6 cells was intravenously injected to ICR strain mice (5 week age, female). After 3 hours, a solution of an antibiotic R106 in TWEEN 80-ethanolphysiological saline (1:9:90, v/v) was subcutaneously, intravenously or orally given to the mice in various concentrations, and then once a day for 4 days the R106 drug solution was given. Mortality was assessed for 30 days after infection to determine the therapeutic effect.
T/C is a value which expresses the mean survival day of the treated group
to the mean survival day of the not treated control group by %.

[13] = 50% lethal dose (LD50) in mice; type: in vivo
Excerpt: All of the antibiotics R106 show low toxicity. The results of 50% lethal dose (LD50) obtained when each of representative compounds of the present invention was given to mice intravenously, intraperitoneally and orally are shown in Table 7.

[14] = Physicochemical properties of compound 1
Excerpt: Physicochemical properties of compound 1 are as follows.

For `CCC(C)C1NC(=O)C2CCCN2C(=O)C(Cc2ccccc2)N(C)C(=O)C(Cc2ccccc2)NC(=O)C(C(C)C)N(C)C(=O)C(C(C)CC)OC(=O)C(C(C)(C)O)N(C)C(=O)C(CC(C)C)NC(=O)C(C(C)C)N(C)C1=O` (centres unmarked) [Compound 1] (cyclo([ξNMeVal(3-OH)][X1][NMeV]F[NMeF]PI[NMeV]L); configuration not given here), the “Minimum Inhibitory Concentration” value [1] was 0.16 µg/mL, the “Minimum Inhibitory Concentration” value [2] was 0.16 µg/mL and the “Minimum Inhibitory Concentration” value [3] was 5 µg/mL. The “Minimum Inhibitory Concentration” value [4] was greater than 80 µg/mL, the “Minimum Inhibitory Concentration” value [5] was greater than 80 µg/mL and the “Minimum Inhibitory Concentration” value [6] was 2.5 µg/mL. The “Minimum Inhibitory Concentration” value [7] was 0.63 µg/mL, the “Minimum Inhibitory Concentration” value [8] was 0.16 µg/mL and the “Minimum Inhibitory Concentration” value [9] was 80 µg/mL. The “Minimum Inhibitory Concentration” value [10] was 0.31 µg/mL, the “Minimum Inhibitory Concentration” value [11] was no more than 0.04 µg/mL and the “Mean Survival Day” value ([12]; i.v. 0.875 mg/kg) was 14.6 ± 1.9 days. For the same compound, the “Number of Animal Survived/Number of Animal Tested” value ([12]; i.v. 0.875 mg/kg) was 0/5, the T/C ([12]; i.v. 0.875 mg/kg) was 119% and the “Mean Survival Day” value ([12]; i.v. 1.75 mg/kg) was 18.2 ± 5.0 days. The “Number of Animal Survived/Number of Animal Tested” value ([12]; i.v. 1.75 mg/kg) was 0/5, the T/C ([12]; i.v. 1.75 mg/kg) was 149% and the “Mean Survival Day” value ([12]; i.v. 3.5 mg/kg) was 19.2 ± 6.3 days. For the same compound, the “Number of Animal Survived/Number of Animal Tested” value ([12]; i.v. 3.5 mg/kg) was 0/5, the T/C ([12]; i.v. 3.5 mg/kg) was 157% and the “Mean Survival Day” value ([12]; i.v. 7 mg/kg) was 29.0 ± 2.2 days. For the same compound, the “Number of Animal Survived/Number of Animal Tested” value ([12]; i.v. 7 mg/kg) was 4/5, the T/C ([12]; i.v. 7 mg/kg) was 237% and the “Mean Survival Day” value ([12]; i.v. 14 mg/kg) was 26.6 ± 5.0 days. The “Number of Animal Survived/Number of Animal Tested” value ([12]; i.v. 14 mg/kg) was 3/5, the T/C ([12]; i.v. 14 mg/kg) was 217% and the “Mean Survival Day” value ([12]; p.o. 7 mg/kg) was 14.8 ± 4.8 days. The “Number of Animal Survived/Number of Animal Tested” value ([12]; p.o. 7 mg/kg) was 0/5, the T/C ([12]; p.o. 7 mg/kg) was 121% and the “Mean Survival Day” value ([12]; p.o. 14 mg/kg) was 23.2 ± 6.2 days. The “Number of Animal Survived/Number of Animal Tested” value ([12]; p.o. 14 mg/kg) was 0/5, the T/C ([12]; p.o. 14 mg/kg) was 189% and the “Mean Survival Day” value ([12]; p.o. 28 mg/kg) was 30.0 ± 0 days. The “Number of Animal Survived/Number of Animal Tested” value ([12]; p.o. 28 mg/kg) was 5/5, the T/C ([12]; p.o. 28 mg/kg) was 245% and the “Mean Survival Day” value ([12]; s.c. 1.75 mg/kg) was 14.2 ± 2.9 days. For the same compound, the “Number of Animal Survived/Number of Animal Tested” value ([12]; s.c. 1.75 mg/kg) was 0/5, the T/C ([12]; s.c. 1.75 mg/kg) was 116% and the “Mean Survival Day” value ([12]; s.c. 3.5 mg/kg) was 18.8 ± 3.5 days. The “Number of Animal Survived/Number of Animal Tested” value ([12]; s.c. 3.5 mg/kg) was 0/5, the T/C ([12]; s.c. 3.5 mg/kg) was 153% and the “Mean Survival Day” value ([12]; s.c. 7 mg/kg) was 22.4 ± 7.0 days. For the same compound, the “Number of Animal Survived/Number of Animal Tested” value ([12]; s.c. 7 mg/kg) was 2/5, the T/C ([12]; s.c. 7 mg/kg) was 183% and the “Mean Survival Day” value ([12]; s.c. 14 mg/kg) was 27.2 ± 6.3 days. For the same compound, the “Number of Animal Survived/Number of Animal Tested” value ([12]; s.c. 14 mg/kg) was 4/5, the T/C ([12]; s.c. 14 mg/kg) was 222% and the LD50 ([13]; i.p.) was greater than 400 mg/kg. For the same compound, the LD50 ([13]; i.v.) was greater than 200 mg/kg, the LD50 ([13]; p.o.) was greater than 1000 mg/kg and the “Acidic, neutral or basic” value [14] was “neutral substance”. The Solubility in solvent ([14]; organic solvents) was “soluble in chloroform, methanol, ethanol, N,N-dimethylformamide and dimethylsulfoxide” and the Solubility in solvent ([14]; water) was “sparingly soluble in water”.
